Assay: Plasma pharmacokinetics of the parent compound after a single oral dose of prodrug
Type: in vivo
Details: single oral dose 10 mg/kg, fasted male Sprague Dawley rats; plasma analyzed for the parent compound; study duration 8 h
Method: Plasma pharmacokinetics of compounds was determined using three male Sprague Dawley rats following a single oral dose administration. All animals were placed in a rat metabolic cage, isolated, and fasted approximately 15 hours prior to dosing. Identifying markers were placed on each animal. Each animal was weighed prior to dose administration. Animals were administered orally with a solution formulation of test compound either in water or a combination of water/propylene glycol, at a dose of 10 mg/kg. Gavage needles were attached to syringes and filled with appropriate amount of test article to be dosed. Blood samples (approximately 500 μL) were collected from three rats at pre-dose (time 0), 0.5, 1, 2, 4, 8, 12 and 24 hr, respectively, depending on study duration. Samples were collected into labeled micro centrifuge tubes containing (heparin solution) as an anticoagulant. Plasma was immediately harvested from the blood by centrifugation at 14,000 rpm for 3 min at 4° C., and stored below −70° C. until bioanalysis. Individual plasma samples were analyzed for the parent compound, 3-[2-(4-carbamimidoyl-phenylcarbamoyl)-5-methoxy-4-vinyl-phenyl]-6-(cyclopropylmethyl-carbamoyl)-pyridine-2-carboxylic acid. As shown in Table-1, the test compounds yielded varying degrees of exposure to the parent compound. The test compounds generally provided for improved bioavailability of the parent compound as compared to dosing of the parent compound in aqueous solutions.

SMILES	AUC0-last hour (area under the curve)
C=Cc1cc(C(=O)Nc2ccc(C(=N)NC(=O)OCC)cc2)c(-c2ccc(C(=O)NCC3CC3)nc2C(=O)OC(C)OC(=O)C(C)C)cc1OC (stereo not shown) [Compound 42a, 1-(isobutyryloxy)ethyl 6-((cyclopropylmethyl)carbamoyl)-3-(2-((4-(N-(ethoxycarbonyl)carbamimidoyl)phenyl)carbamoyl)-5-methoxy-4-vinylphenyl)picolinate]	C (C >10,000 ng/mL)
C=Cc1cc(C(=O)Nc2ccc(C(=N)NC(=O)OCC)cc2)c(-c2ccc(C(=O)NCC3CC3)nc2C(=O)OC(C)OC(=O)OC(C)C)cc1OC (stereo not shown) [Compound 43a, 1-((isopropoxycarbonyl)oxy)ethyl 6-((cyclopropylmethyl)carbamoyl)-3-(2-((4-(N-(ethoxycarbonyl)carbamimidoyl)phenyl)carbamoyl)-5-methoxy-4-vinylphenyl)picolinate]	C (C >10,000 ng/mL)
C=Cc1cc(C(=O)Nc2ccc(C(=N)NC(=O)OCc3oc(=O)oc3C)cc2)c(-c2ccc(C(=O)NCC3CC3)nc2C(=O)O)cc1OC [Compound 44b, 6-((cyclopropylmethyl)carbamoyl)-3-(5-methoxy-2-((4-(N-(((5-methyl-2-oxo-1,3-dioxol-4-yl)methoxy)carbonyl)carbamimidoyl)phenyl)carbamoyl)-4-vinylphenyl)picolinic acid]	A (A = 0-1,000 ng/mL)
C=Cc1cc(C(=O)Nc2ccc(C(=N)NC(=O)OCCCCCC)cc2)c(-c2ccc(C(=O)NCC3CC3)nc2C(=O)OCOC(=O)CN)cc1OC [Compound 45b, (2-aminoacetoxy)methyl 6-((cyclopropylmethyl)carbamoyl)-3-(2-((4-(N-((hexyloxy)carbonyl)carbamimidoyl)phenyl)carbamoyl)-5-methoxy-4-vinylphenyl)picolinate]	A (A = 0-1,000 ng/mL)
C=Cc1cc(C(=O)Nc2ccc(C(=N)NC(=O)OC(C)OC(C)=O)cc2)c(-c2ccc(C(=O)NCC3CC3)nc2C(=O)OC(C)OC(=O)OC(C)C)cc1OC (stereo not shown) [Compound 47a, 1-((isopropoxycarbonyl)oxy)ethyl 3-(2-((4-(N-((1-acetoxyethoxy)carbonyl)carbamimidoyl)phenyl)carbamoyl)-5-methoxy-4-vinylphenyl)-6-((cyclopropylmethyl)carbamoyl) picolinate]	B (B = 1,001-10,000 ng/mL)
C=Cc1cc(C(=O)Nc2ccc(C(=N)NC(=O)OC(C)OC(C)=O)cc2)c(-c2ccc(C(=O)NCC3CC3)nc2C(=O)OC(C)OC(=O)C(C)C)cc1OC (stereo not shown) [Compound 48b, 1-(isobutyryloxy)ethyl 3-(2-((4-(N-((1-acetoxyethoxy)carbonyl)carbamimidoyl)phenyl)carbamoyl)-5-methoxy-4-vinylphenyl)-6-((cyclopropylmethyl)carbamoyl)picolinate]	C (C >10,000 ng/mL)
C=Cc1cc(C(=O)Nc2ccc(C(=N)NC(=O)OC(C)OC(=O)C(C)C)cc2)c(-c2ccc(C(=O)NCC3CC3)nc2C(=O)OC(C)OC(=O)OC(C)C)cc1OC (stereo not shown) [Compound 49a, 1-((isopropoxycarbonyl)oxy)ethyl 6-((cyclopropylmethyl)carbamoyl)-3-(2-((4-(N-((1-(isobutyryloxy)ethoxy)carbonyl)carbamimidoyl)phenyl)carbamoyl)-5-methoxy-4-vinylphenyl)picolinate]	B (B = 1,001-10,000 ng/mL)
C=Cc1cc(C(=O)Nc2ccc(C(=N)NC(=O)OCCCCCC)cc2)c(-c2ccc(C(=O)NCC3CC3)nc2C(=O)OCOC(=O)[C@@H](N)CC(C)C)cc1OC [Compound 50d, (S)-((2-amino-4-methylpentanoyl)oxy)methyl 6-((cyclopropylmethyl)carbamoyl)-3-(2-((4-(N-((hexyloxy)carbonyl)carbamimidoyl)phenyl)carbamoyl)-5-methoxy-4-vinylphenyl)picolinate]	B (B = 1,001-10,000 ng/mL)
C=Cc1cc(C(=O)Nc2ccc(C(=N)NO)cc2)c(-c2ccc(C(=O)NCC3CC3)nc2C(=O)OC(C)OC(=O)OC(C)C)cc1OC (stereo not shown) [Compound 51b, 1-((isopropoxycarbonyl)oxy)ethyl 6-((cyclopropylmethyl)carbamoyl)-3-(2-((4-(N-hydroxycarbamimidoyl)phenyl)carbamoyl)-5-methoxy-4-vinylphenyl)picolinate]	A (A = 0-1,000 ng/mL)
C=Cc1cc(C(=O)Nc2ccc(-c3noc(=O)[nH]3)cc2)c(-c2ccc(C(=O)NCC3CC3)nc2C(=O)OC(C)OC(=O)OC(C)C)cc1OC (stereo not shown) [Compound 52b, 1-((isopropoxycarbonyl)oxy)ethyl 6-((cyclopropylmethyl)carbamoyl)-3-(5-methoxy-2-((4-(5-oxo-4,5-dihydro-1,2,4-oxadiazol-3-yl)phenyl)carbamoyl)-4-vinylphenyl)picolinate]	A (A = 0-1,000 ng/mL)
C=Cc1cc(C(=O)Nc2ccc(C(=N)NC(=O)OC(C)OC(=O)[C@@H](N)C(C)C)cc2)c(-c2ccc(C(=O)NCC3CC3)nc2C(=O)OC(C)OC(=O)OC(C)C)cc1OC (stereo partly drawn) [Compound 54c, 1-((isopropoxycarbonyl)oxy)ethyl 3-(2-((4-(N-((1-(((S)-2-amino-3-methylbutanoyl)oxy)ethoxy)carbonyl)carbamimidoyl)phenyl)carbamoyl)-5-methoxy-4-vinylphenyl)-6-((cyclopropylmethyl)carbamoyl)picolinate]	B (B = 1,001-10,000 ng/mL)
C=Cc1cc(C(=O)Nc2ccc(C(=N)NC(=O)OC(C)OC(=O)[C@@H](N)C(C)C)cc2)c(-c2ccc(C(=O)NCC3CC3)nc2C(=O)OC(C)OC(=O)C(C)C)cc1OC (stereo partly drawn) [Compound 55b, 1-(isobutyryloxy)ethyl 3-(2-((4-(N-((1-(((S)-2-amino-3-methylbutanoyl)oxy)ethoxy)carbonyl)carbamimidoyl)phenyl)carbamoyl)-5-methoxy-4-vinylphenyl)-6-((cyclopropylmethyl)carbamoyl)picolinate]	B (B = 1,001-10,000 ng/mL)
C=Cc1cc(C=O)c(-c2ccc(C(=O)NCC3CC3)nc2C(=O)OC(OC(=O)C(C)(C)C)C(C)C)cc1OC (stereo not shown) [Compound 56b, 2-methyl-1-(pivaloyloxy)propyl 6-((cyclopropylmethyl)carbamoyl)-3-(2-formyl-5-methoxy-4-vinylphenyl)picolinate]	C (C >10,000 ng/mL)
C=Cc1cc(C(=O)Nc2ccc(C(=N)NC(=O)OCCCCCC)cc2)c(-c2ccc(C(=O)NCC3CC3)nc2C(=O)OC(OC(=O)C(C)(C)C)C(C)C)cc1OC (stereo not shown) [Compound 57a, 2-methyl-1-(pivaloyloxy)propyl 6-((cyclopropylmethyl)carbamoyl)-3-(2-((4-(N-((hexyloxy)carbonyl)carbamimidoyl)phenyl)carbamoyl)-5-methoxy-4-vinylphenyl)picolinate]	B (B = 1,001-10,000 ng/mL)
C=Cc1cc(C(=O)Nc2ccc(C(=N)N)cc2)c(-c2ccc(C(=O)NCC3CC3)nc2C(=O)OC(C)OC(=O)[C@@H](N)C(C)C)cc1OC.Cl (stereo partly drawn) [Compound 58f, 1-(((S)-2-amino-3-methylbutanoyl)oxy)ethyl 3-(2-((4-carbamimidoylphenyl)carbamoyl)-5-methoxy-4-vinylphenyl)-6-((cyclopropylmethyl)carbamoyl)picolinate Hydrochloride]	B (B = 1,001-10,000 ng/mL)
C=Cc1cc(C(=O)Nc2ccc(C(=N)NC(=O)OCCCCCC)cc2)c(-c2ccc(C(=O)NCC3CC3)nc2C(=O)OC(C)OC(=O)[C@@H](N)C(C)C)cc1OC.Cl (stereo partly drawn) [Compound 59b, 1-(((S)-2-amino-3-methylbutanoyl)oxy)ethyl 6-((cyclopropylmethyl)carbamoyl)-3-(2-((4-(N-((hexyloxy)carbonyl)carbamimidoyl)phenyl)carbamoyl)-5-methoxy-4-vinylphenyl)picolinate Hydrochloride]	B (B = 1,001-10,000 ng/mL)
C=Cc1cc(C(=O)Nc2ccc(C(=N)NC(=O)OCCC(=O)OC(C)(C)C)cc2)c(-c2ccc(C(=O)NCC3CC3)nc2C(=O)OC(C)OC(=O)OC(C)C)cc1OC (stereo not shown) [Compound 60c, 1-((isopropoxycarbonyl)oxy)ethyl 3-(2-((4-(N-((3-(tert-butoxy)-3-oxopropoxy)carbonyl)carbamimidoyl)phenyl)carbamoyl)-5-methoxy-4-vinylphenyl)-6-((cyclopropylmethyl)carbamoyl)picolinate]	B (B = 1,001-10,000 ng/mL)
C=Cc1cc(C(=O)Nc2ccc(C(=N)NC(=O)OCCCCCC)cc2)c(-c2ccc(C(=O)NCC3CC3)nc2C(=O)OCOC(=O)[C@@H](N)CCC(=O)O)cc1OC [Compound 61d, (S)-4-amino-5-(((6-((cyclopropylmethyl)carbamoyl)-3-(2-((4-(N-((hexyloxy)carbonyl)carbamimidoyl)phenyl)carbamoyl)-5-methoxy-4-vinylphenyl)picolinoyl)oxy)methoxy)-5-oxopentanoic acid]	A (A = 0-1,000 ng/mL)
C=Cc1cc(C(=O)Nc2ccc(C(=N)NC(=O)OCCCCCC)cc2)c(-c2ccc(C(=O)NCC3CC3)nc2C(=O)OCOC(=O)[C@@H](N)[C@@H](C)CC)cc1OC [Compound 62d, (((2S,3S)-2-amino-3-methylpentanoyl)oxy)methyl 6-((cyclopropylmethyl)carbamoyl)-3-(2-((4-(N-((hexyloxy)carbonyl)carbamimidoyl)phenyl)carbamoyl)-5-methoxy-4-vinylphenyl)picolinate]	B (B = 1,001-10,000 ng/mL)

From patent publication US20210198204A1, “PRODRUGS OF KALLIKREIN INHIBITORS” (BioCryst Pharmaceuticals, Inc., priority 2016, published 2021)
